Measurements: US8921373B2, “Compounds having TRPV1 antagonistic activity and uses thereof” (Shionogi & Co., Ltd., priority 2010, dated 2014)

How the values were obtained:
human recombinant TRPV1 [1] = biological target: T1, human recombinant TRPV1 (Homo sapiens (Human), UniProt Q8NER1); experiment: TRPV1 pH-Based Assay (Protocol 2, Ca2+ response in TRPV1/CHO cells, Fura-2); type: cell-based; details: TRPV1/CHO cells, pH 5.0-5.1; read-out: IC50 value by the pH-Based Assay
How it was run: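 CHO cells stably expressing human TRPV1, Fura-2 loaded, given compound (1% DMSO in 10× stock) before acid challenge to final pH 5.0-5.1 (3.2 or 3.3 mM H2SO4). 340/380 nm ratio recorded at 0.5 Hz; maximal ratio after agonist addition versus 16-point baseline used as response.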

human recombinant TRPV1 [2] = biological target: T1, human recombinant TRPV1; experiment: TRPV1 Capsaicin-Based Assay (Protocol 2, TRPV1/CHO cells, Fluo-4, FLIPR); type: cell-based; details: TRPV1/CHO cells, capsaicin 100 nM final; read-out: IC50 value by the Capsaicin-Based Assay
Procedure: For Protocol 2, a Chinese Hamster Ovary cell line (CHO) that has been engineered to constitutively express human recombinant TRPV1 was used (TRPV1/CHO cells). The TRPV1/CHO cell line was generated as described below.
One day prior to assay, TRPV1/CHO cells were seeded in 96-well clear-bottom black plates (20,000 cells/well) in growth media. On the day of the experiment, the cells were washed with 0.2 mL 1× Hank's Balanced Salt Solution (Life Technologies) containing 1.6 mM CaCl2 and 20 mM HEPES, pH 7.4 (“wash buffer”). Subsequently, the cells were loaded by incubation in 0.1 mL of wash buffer containing Fluo-4 at 3 μM final concentration. After 1 hour, the cells were washed twice with 0.2 mL wash buffer and resuspended in 0.1 mL wash buffer. The plates were then transferred to a Fluorescence Imaging Plate Reader (Molecular Devices). Fluorescence intensity was monitored for 15 seconds to establish a baseline. Subsequently, test compounds diluted in assay buffer (1× Hank's Balanced Salt Solution containing 1 mM CaCl2 and 20 mM HEPES, pH 7.4) containing 1% DMSO were added to the cell plate and fluorescence was monitored for 2 minutes. […] Human TRPV1 was then activated by the addition of 50 μL capsaicin (100 nM final concentration) and plates incubated for an additional 3 min. Data were collected over the entire time course and analyzed using Excel and the curve-fitting formula GraphPad Prism.

[3] = Measurement of body temperature increase (rectal body temperature); type: in vivo, rat; details: Crl/SD rats, oral; for Body temperature increase: 1 mg/mL at 10 mL/kg; for Body temperature increase ΔTb: 1 mg/mL in 0.5% methylcellulose at 10 mL/kg, difference from vehicle group average
Procedure: Test Animals: Selection of rats (Crl/SD rats, 7 weeks, male) for this study was based on rectal body temperature measured during the morning of the day of dosing. In addition, animals selected for this study were acclimated to both the rectal measurement procedure and to being handled and dosed to minimize spontaneous, stress-induced, increases in body temperature. The study was conducted in the animal care laboratories where the room temperature and humidity were kept. The rats were free to move and food and water during the study. Each rat was numbered with color line on the tail, housed in each cage and permitted the normal range of movement. Immediately before each body temperature was measured, they transferred to a single cage at each measurement. To reduce stress which affected the body temperature, the rats were covered with towels at the measurement. The thermistor probe was then carefully inserted into the rectum of each rat and left in place until the value on the digital display had stabilized.
Assays: On the day before dosing, rectal body temperatures were measured at 9:00, 10:00, 11:00, 12:30, 13:30, 14:30 and 15:30 to familiarize the animals with the measurement procedure prior to administration of the test or control treatments. The rats were also dosed by oral gavage without vehicle at 12:30 to acclimate and familiarized the animals with the handling and dosing procedure.
On the day of dosing, only rats whose rectal body temperatures were within the range of 37.0° C. to 37.7° C. were selected for this study. Rectal body temperatures were measured at 9:00, 10:00 and 11:00. Rats whose rectal body temperatures were over 37.9° C. at 10:00, and were outside the range of 37.0° C. to 37.7° C. at 11:00 were excluded from the study. The selected rats were divided to several groups based on their rectal body temperatures at 11:00. Rectal body temperatures of the selected rats were measured again at 12:30, and any rats whose rectal body temperature was 38.0° C. or greater were excluded from the study.
Following the group assignment, test compounds or vehicle was administrated to the rats. Each test compound was dissolved in 0.5% methylcellurose and the final concentration of the compound was adjusted to 1 mg/mL. Test compound was orally administrated in a volume 10 mL/kg once. 10 mL/kg of vehicle (0.5% methylcellurose) was administered to the vehicle group. The rectal body temperatures were measured 0.5, 1 and 2 hrs after the administration. The study was conducted in the animal care laboratories where the room temperature and humidity were kept.
Body temperature increase (ΔTb) was calculated from the difference from an average of the vehicle group at each time point.

T1 sequence (Q8NER1 whole entry): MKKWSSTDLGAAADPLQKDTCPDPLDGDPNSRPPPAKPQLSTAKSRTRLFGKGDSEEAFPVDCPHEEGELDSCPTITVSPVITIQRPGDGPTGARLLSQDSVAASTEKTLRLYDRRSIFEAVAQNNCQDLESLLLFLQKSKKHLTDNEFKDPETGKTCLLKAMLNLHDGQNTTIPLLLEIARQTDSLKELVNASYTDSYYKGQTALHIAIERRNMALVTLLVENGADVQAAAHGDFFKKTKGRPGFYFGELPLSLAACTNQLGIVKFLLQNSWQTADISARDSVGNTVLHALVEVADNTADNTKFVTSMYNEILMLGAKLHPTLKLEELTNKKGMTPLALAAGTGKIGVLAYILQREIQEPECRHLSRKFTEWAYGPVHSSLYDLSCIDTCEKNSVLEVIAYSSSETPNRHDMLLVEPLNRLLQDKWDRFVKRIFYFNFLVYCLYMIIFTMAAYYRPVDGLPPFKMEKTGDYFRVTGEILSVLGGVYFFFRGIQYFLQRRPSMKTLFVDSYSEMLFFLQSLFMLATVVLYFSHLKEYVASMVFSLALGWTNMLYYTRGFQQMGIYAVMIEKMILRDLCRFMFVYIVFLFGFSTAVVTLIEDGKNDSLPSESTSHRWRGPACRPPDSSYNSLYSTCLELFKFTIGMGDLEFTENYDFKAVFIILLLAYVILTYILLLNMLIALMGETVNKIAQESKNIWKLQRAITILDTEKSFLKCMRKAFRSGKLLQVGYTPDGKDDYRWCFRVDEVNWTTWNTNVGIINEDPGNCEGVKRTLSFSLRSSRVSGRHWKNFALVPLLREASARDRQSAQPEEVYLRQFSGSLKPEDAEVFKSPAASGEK

O=C(Nc1nc2ccc(F)cc2s1)N1CCN(c2ncc(C[C@@H](O)CO)cc2F)CC1 [ACW, (R)-4-(5-(2,3-dihydroxypropyl)-3-fluoropyridin-2-yl)-N-(6-fluorobenzo[d]-thiazol-2-yl)piperazine-1-carboxamide]
IC50 (human recombinant TRPV1 [1]): ≤ 50 nM | IC50 (human recombinant TRPV1 [2]): ≤ 50 nM | Body temperature increase [3]: less than 0.5 °C

C[C@H]1CN(c2ncc(C[C@H](O)CO)cc2Cl)CCN1C(=O)Nc1nc2ccc(Cl)cc2s1 [AEG]
IC50 (human recombinant TRPV1 [2]): ≤ 50 nM | Body temperature increase [3]: less than 0.5 °C

Cc1ccc2nc(NC(=O)N3CCN(c4ncc(C[C@@H](O)CO)cc4Cl)CC3)sc2c1 [ADU]
IC50 (human recombinant TRPV1 [1]): ≤ 50 nM | IC50 (human recombinant TRPV1 [2]): ≤ 50 nM | Body temperature increase [3]: less than 0.5 °C

Cc1cc(NC(=O)N2CC=C(c3ncc(C[C@@H](O)CO)cc3F)CC2)ccc1C(F)(F)F [ACA, (R)-5-(2,3-dihydroxypropyl)-3-fluoro-N-(3-methyl-4-(trifluoro-methyl)phenyl)-5′,6′-dihydro-[2,4′-bipyridine]-1′(2′H)-carboxamide]
IC50 (human recombinant TRPV1 [1]): ≤ 50 nM | Body temperature increase [3]: less than 0.5 °C

O=C(Nc1nc2ccc(Cl)cc2s1)N1CCN(c2ncc(C[C@H](O)CO)cc2F)CC1 [ADE, (S)-N-(6-chlorobenzo[d]thiazol-2-yl)-4-(5-(2,3-dihydroxypropyl)-3-fluoropyridin-2-yl)piperazine-1-carboxamide]
IC50 (human recombinant TRPV1 [1]): ≤ 50 nM | IC50 (human recombinant TRPV1 [2]): ≤ 50 nM | Body temperature increase [3]: less than 0.5 °C

C[C@@H]1CN(c2ncc(C[C@@H](O)CO)cc2F)CCN1C(=O)Nc1nc2ccc(Cl)cc2s1 [ADK, (R)-N-(6-chlorobenzo[d]thiazol-2-yl)-4-{5-[(R)-2,3-dihydroxypropyl]-3-fluoropyridin-2-yl}-2-methylpiperazine-1-carboxamide]
IC50 (human recombinant TRPV1 [1]): ≤ 50 nM | Body temperature increase [3]: less than 0.5 °C

Cc1ccc2nc(NC(=O)N3CCN(c4ncc(C[C@H](O)CO)cc4Cl)CC3)sc2c1 [ADX]
IC50 (human recombinant TRPV1 [2]): ≤ 50 nM | Body temperature increase [3]: less than 0.5 °C

O=C(Nc1nc2ccc(Cl)cc2s1)N1CCN(c2ncc(C[C@@H](O)CO)cc2Cl)CC1 [ADT]
IC50 (human recombinant TRPV1 [1]): ≤ 50 nM | IC50 (human recombinant TRPV1 [2]): ≤ 50 nM | Body temperature increase [3]: less than 0.5 °C

O=C(Nc1nc2ccc(F)cc2s1)N1CCN(c2ncc(C[C@@H](O)CO)cc2Cl)CC1 [ACV, (R)-4-(3-chloro-5-(2,3-dihydroxypropyl)pyridin-2-yl)-N-(6-fluorobenzo[d]thiazol-2-yl)piperazine-1-carboxamide]
IC50 (human recombinant TRPV1 [1]): ≤ 50 nM | IC50 (human recombinant TRPV1 [2]): ≤ 50 nM | Body temperature increase [3]: less than 0.5 °C

Cc1cc(NC(=O)N2CC=C(c3ncc(C[C@@H](O)CO)cc3Cl)CC2)ccc1C(F)(F)F [AAW, (R)-4-(3-Chloro-5-(2,3-dihydroxypropyl)pyridin-2-yl)-N-(3-methyl-4-(trifluoromethyl)phenyl)-5,6-dihydropyridine-1(2H)-carboxamide]
IC50 (human recombinant TRPV1 [1]): ≤ 50 nM | Body temperature increase [3]: less than 0.5 °C

O=C(Nc1nc2ccccc2s1)N1CCN(c2ncc(C[C@@H](O)CO)cc2Cl)CC1 [ADV]
IC50 (human recombinant TRPV1 [1]): ≤ 50 nM | Body temperature increase [3]: less than 0.5 °C

COc1cc(NC(=O)N2CC=C(c3ncc(C[C@@H](O)CO)cc3Cl)CC2)ccc1C(F)(F)F [AAM, (R)-4-(3-Chloro-5-(2,3-dihydroxypropyl)pyridin-2-yl)-N-(3-methoxy-4-(trifluoromethyl)phenyl)-5,6-dihydropyridine-1(2H)-carboxamide]
IC50 (human recombinant TRPV1 [1]): ≤ 50 nM | Body temperature increase [3]: less than 0.5 °C

O=C(Nc1ccc(C(F)(F)F)c(Cl)c1)N1CC=C(c2ncc(C[C@@H](O)CO)cc2Cl)CC1 [AAK, (R)-N-(3-Chloro-4-(trifluoromethyl)phenyl)-4-(3-chloro-5-(2,3-dihydroxypropyl)pyridin-2-yl)-5,6-dihydropyridine-1(2H)-carboxamide]
IC50 (human recombinant TRPV1 [1]): ≤ 50 nM | Body temperature increase [3]: less than 0.5 °C

Cc1cc(NC(=O)N2CC=C(c3ncc(C[C@H](O)CO)cc3F)CC2)ccc1OC(F)(F)F [ABZ, (S)-5-(2,3-dihydroxypropyl)-3-fluoro-N-(3-methyl-4-(trifluoromethoxy)-phenyl)-5′,6′-dihydro-[2,4′-bipyridine]-1′(2′H)-carboxamide]
IC50 (human recombinant TRPV1 [1]): ≤ 50 nM | Body temperature increase ΔTb [3]: 0.03 °C

O=C(Nc1nc2ccc(F)cc2s1)N1CCN(c2ncc(C[C@H](O)CO)cc2F)CC1 [ADD, (S)-4-(5-(2,3-dihydroxypropyl)-3-fluoropyridin-2-yl)-N-(6-fluorobenzo[d]-thiazol-2-yl)piperazine-1-carboxamide]
IC50 (human recombinant TRPV1 [1]): ≤ 50 nM | Body temperature increase [3]: less than 0.5 °C

O=C(Nc1nc2ccc(Cl)cc2s1)N1CCN(c2ncc(C[C@H](O)CO)cc2Cl)CC1 [ADW]
IC50 (human recombinant TRPV1 [1]): ≤ 50 nM | IC50 (human recombinant TRPV1 [2]): ≤ 50 nM | Body temperature increase [3]: less than 0.5 °C

Cc1cc(NC(=O)N2CCC(F)(c3ncc(C[C@@H](O)CO)cc3F)CC2)ccc1OC(F)(F)F [ACP, (R)-4-(5-(2,3-dihydroxypropyl)-3-fluoropyridin-2-yl)-4-fluoro-N-(3-methyl-4-(trifluoromethoxy)phenyl)piperidine-1-carboxamide]
IC50 (human recombinant TRPV1 [1]): ≤ 50 nM | IC50 (human recombinant TRPV1 [2]): ≤ 50 nM | Body temperature increase ΔTb [3]: 0.16 °C

Cc1cc(NC(=O)N2CC=C(c3ncc(C[C@H](O)CO)cc3F)CC2)ccc1C(F)(F)F [ABY, (S)-5-(2,3-dihydroxypropyl)-3-fluoro-N-(3-methyl-4-(trifluoromethyl)phenyl)-5′,6′-dihydro-[2,4′-bipyridine]-1′(2′H)-carboxamide]
IC50 (human recombinant TRPV1 [1]): ≤ 50 nM | IC50 (human recombinant TRPV1 [2]): ≤ 50 nM | Body temperature increase [3]: less than 0.5 °C

Cc1ccc2nc(NC(=O)N3CCN(c4ncc(C[C@@H](O)CO)cc4F)CC3)sc2c1 [ACY, (R)-4-(5-(2,3-dihydroxypropyl)-3-fluoropyridin-2-yl)-N-(6-methylbenzo[d]-thiazol-2-yl)piperazine-1-carboxamide]
IC50 (human recombinant TRPV1 [1]): ≤ 50 nM | IC50 (human recombinant TRPV1 [2]): ≤ 50 nM | Body temperature increase [3]: less than 0.5 °C

O=C(Nc1nc2ccc(Cl)cc2s1)N1CCN(c2ncc(C[C@@H](O)CO)cc2F)CC1 [ACX, (R)-N-(6-chlorobenzo[d]thiazol-2-yl)-4-(5-(2,3-dihydroxypropyl)-3-fluoropyridin-2-yl)piperazine-1-carboxamide]
IC50 (human recombinant TRPV1 [1]): ≤ 50 nM | IC50 (human recombinant TRPV1 [2]): ≤ 50 nM | Body temperature increase [3]: less than 0.5 °C

O=C(Nc1nc2ccc(F)cc2s1)N1CCN(c2ncc(C[C@H](O)CO)cc2Cl)CC1 [ADR]
IC50 (human recombinant TRPV1 [1]): ≤ 50 nM | IC50 (human recombinant TRPV1 [2]): ≤ 50 nM | Body temperature increase [3]: less than 0.5 °C
